“Also recorded” adds a separate entry of the source.
How the values were obtained:
Sm.TRPMMCLZ = molecular target: T1, Sm.TRPMMCLZ (Schistosoma mansoni, UniProt A0A5K4FCC0); assay: Ca2+ reporter assay; type: cell-based; details: for Activator screen at Sm.TRPMMCLZ: 10 μM; for Antagonism of (S)-MCLZ (1 μM) action at Sm.TRPMMCLZ: 100 μM, preincubation 5 min
T1 sequence (A0A5K4FCC0 1-1380): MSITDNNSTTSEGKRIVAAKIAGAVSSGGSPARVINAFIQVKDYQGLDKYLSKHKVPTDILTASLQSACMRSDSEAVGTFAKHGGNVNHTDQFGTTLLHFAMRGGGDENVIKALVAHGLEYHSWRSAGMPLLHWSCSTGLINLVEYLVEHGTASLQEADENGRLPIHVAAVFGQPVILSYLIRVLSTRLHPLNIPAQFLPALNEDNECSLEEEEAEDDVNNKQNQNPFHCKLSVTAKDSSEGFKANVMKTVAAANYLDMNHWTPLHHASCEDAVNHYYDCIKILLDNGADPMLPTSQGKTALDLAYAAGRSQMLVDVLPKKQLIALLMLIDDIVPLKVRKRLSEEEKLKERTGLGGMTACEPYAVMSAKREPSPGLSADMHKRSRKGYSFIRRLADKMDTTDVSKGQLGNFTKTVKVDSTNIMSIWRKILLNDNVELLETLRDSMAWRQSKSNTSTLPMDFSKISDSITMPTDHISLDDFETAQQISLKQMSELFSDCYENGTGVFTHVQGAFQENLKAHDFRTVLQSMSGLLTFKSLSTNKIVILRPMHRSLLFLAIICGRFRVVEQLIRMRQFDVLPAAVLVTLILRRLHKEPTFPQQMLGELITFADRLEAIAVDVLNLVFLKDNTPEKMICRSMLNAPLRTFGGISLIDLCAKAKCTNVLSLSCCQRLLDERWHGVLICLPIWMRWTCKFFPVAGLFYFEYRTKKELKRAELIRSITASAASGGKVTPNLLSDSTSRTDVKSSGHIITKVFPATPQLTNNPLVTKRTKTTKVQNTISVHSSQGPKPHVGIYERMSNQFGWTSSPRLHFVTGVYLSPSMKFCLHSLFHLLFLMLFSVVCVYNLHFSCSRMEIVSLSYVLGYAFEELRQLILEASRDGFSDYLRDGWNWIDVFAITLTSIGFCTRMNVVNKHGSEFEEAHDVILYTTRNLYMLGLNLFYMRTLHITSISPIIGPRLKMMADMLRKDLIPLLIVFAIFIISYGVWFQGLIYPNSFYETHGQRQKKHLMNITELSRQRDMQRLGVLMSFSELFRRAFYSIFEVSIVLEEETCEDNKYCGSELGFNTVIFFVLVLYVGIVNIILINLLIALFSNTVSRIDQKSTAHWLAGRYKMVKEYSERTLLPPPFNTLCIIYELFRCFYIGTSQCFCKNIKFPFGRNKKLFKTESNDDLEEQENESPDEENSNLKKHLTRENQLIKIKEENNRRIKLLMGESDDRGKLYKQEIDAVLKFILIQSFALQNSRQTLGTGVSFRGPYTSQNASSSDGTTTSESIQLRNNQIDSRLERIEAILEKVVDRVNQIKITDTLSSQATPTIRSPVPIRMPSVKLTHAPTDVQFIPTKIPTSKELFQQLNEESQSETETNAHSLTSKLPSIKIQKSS

S. mansoni male worms = assay: Acute contraction of S. mansoni male worms by benzodiazepines; type: cell-based, Schistosoma mansoni; details: 3 μM, 20 min
Sm.TRPMPZQ = Sm.TRPMPZQ (Schistosoma mansoni, UniProt A0A5K4F0X5); assay: Ca2+ reporter assay; type: cell-based; details: Fig. S2 concentration-response
adult S. mansoni worms = assay: Adult schistosome movement; type: cell-based, Schistosoma mansoni
juvenile worms = details: ref 7 (PZQ); 12 ((S)-MCLZ); cited from earlier work
[1] = tested on: S. mansoni and S. haematobium infections; details: at clinical dosing; cited from earlier work

## COc1cc(CNC(=O)CCCC/C=C/C(C)C)ccc1O [capsaicin]
Sm.TRPMMCLZ
  Activator screen at Sm.TRPMMCLZ: inactive

## CN1C(=O)CN=C(c2ccccc2F)c2cc([N+](=O)[O-])ccc21 [flunitrazepam]
S. mansoni male worms
  Acute contraction / paralysis of S. mansoni male worms: did not evoke worm contraction

## [Cl-].[Cl-].[Mg+2] [Mg^2+, MgCl2]
Sm.TRPMMCLZ; (S)-MCLZ 1 μM, weakest in rank order La3+ > Ba2+ > Mg2+
  Inhibition of Ca2+ permeability through TRPMMCLZ by metal salt: partial inhibition

## COc1ccc(CCN(C)CCCC(C#N)(c2cc(OC)c(OC)c(OC)c2)C(C)C)cc1OC (centres unmarked) [methoxyverapamil]
Sm.TRPMMCLZ
  Antagonism of (S)-MCLZ (1 μM) action at Sm.TRPMMCLZ: weakly antagonized

## O=C1CN=C(c2ccccc2Cl)c2cc([N+](=O)[O-])ccc2N1 [Clonazepam]
S. mansoni male worms
  Acute contraction / paralysis of S. mansoni male worms: caused acute worm paralysis
Sm.TRPMMCLZ; Activation of Sm.TRPMMCLZ, EC50, HEK293 cells, cytoplasmic Ca2+ (Fluo-4)
  EC50: 2100 ± 200 nM

## COC(=O)C1=C(C)NC(C)=C(C(=O)OC)C1c1ccccc1[N+](=O)[O-] [nifedipine]
Sm.TRPMMCLZ
  Antagonism of (S)-MCLZ (1 μM) action at Sm.TRPMMCLZ: weakly antagonized; also recorded: weakly attenuated

## NCCc1c[nH]c2ccc(O)cc12 [5-hydroxytryptamine]
Sm.TRPMMCLZ
  Activator screen at Sm.TRPMMCLZ: inactive

## C=CCN=C=S [allyl isothiocyanate]
Sm.TRPMMCLZ
  Activator screen at Sm.TRPMMCLZ: inactive

## CC1CCC(C(C)C)C(O)C1 (centres unmarked) [menthol]
Sm.TRPMMCLZ
  Activator screen at Sm.TRPMMCLZ: inactive

## C[N+](C)(C)CCOC(N)=O [carbachol]
Sm.TRPMMCLZ
  Activator screen at Sm.TRPMMCLZ: inactive

## O=C1NC(c2cccc([N+](=O)[O-])c2)=CCN1c1ccccc1O [icilin]
Sm.TRPMMCLZ
  Activator screen at Sm.TRPMMCLZ: inactive

## CCOC(=O)c1ncn2c1CN(C)C(=O)c1cc(F)ccc1-2 [flumazenil]
Sm.TRPMMCLZ
  Antagonism of (S)-MCLZ (1 μM) action at Sm.TRPMMCLZ: weakly antagonized

## NCCc1ccc(O)c(O)c1 [dopamine]
Sm.TRPMMCLZ
  Activator screen at Sm.TRPMMCLZ: inactive

## COC(=O)C1=C(C)NC(C)=C(C(=O)OCCN(C)Cc2ccccc2)C1c1cccc([N+](=O)[O-])c1 (centres unmarked) [nicardipine]
Sm.TRPMMCLZ
  Antagonism of (S)-MCLZ (1 μM) action at Sm.TRPMMCLZ: weakly antagonized; also recorded: weakly attenuated

## CN1C(=O)CN=C(c2ccccc2)c2cc(Cl)ccc21 [diazepam]
S. mansoni male worms
  Acute contraction / paralysis of S. mansoni male worms: did not evoke worm contraction

## COC(=O)c1c(C)[nH]c(C)c1C(=O)c1ccccc1Cc1ccccc1 [FPL-64176]
Sm.TRPMPZQ
  Activation of Sm.TRPMPZQ by Cav channel ligands: but not Sm.TRPMPZQ
Sm.TRPMMCLZ
  Activator screen at Sm.TRPMMCLZ: activated

## O=C(O)CN(CCOCCOCCN(CC(=O)O)CC(=O)O)CC(=O)O [EGTA]
Sm.TRPMMCLZ; EGTA 1 mM in Ca2+-free HBSS, (S)-MCLZ 100 μM
  Effect of chelation of extracellular Ca2+ on the (S)-MCLZ-evoked Ca2+ signal: abolished

## O=C(C1CCCCC1)N1CC(=O)N2CCc3ccccc3[C@@H]2C1 [(R)-PZQ, praziquantel]
Adult S. mansoni worms; 1 μM, adult S. mansoni worms, images 1 min after addition
  Effect on worm movement (paralysis): rapid, spastic paralysis
Adult S. mansoni worms; Schistosoma mansoni, read-out: Inhibition of motility, IC50
  IC50: 250 ± 70 nM

## CCN(CC)CCN1C(=O)CN=C(c2ccccc2F)c2cc(Cl)ccc21 [flurazepam]
S. mansoni male worms
  Acute contraction / paralysis of S. mansoni male worms: did not evoke worm contraction

## COCCOC(=O)C1=C(C)NC(C)=C(C(=O)OC(C)C)C1c1cccc([N+](=O)[O-])c1 (centres unmarked) [nimodipine]
Sm.TRPMPZQ
  Activation of Sm.TRPMPZQ by Cav channel ligands: but not Sm.TRPMPZQ
Sm.TRPMMCLZ
  Activator screen at Sm.TRPMMCLZ: activated

## NCCCC(=O)O [GABA]
Sm.TRPMMCLZ
  Activator screen at Sm.TRPMMCLZ: inactive

## O=C(C1CCCCC1)N1CC(=O)N2CCc3ccccc3C2C1 (racemic) [(±)-PZQ, praziquantel]
Juvenile worms
  Efficacy against juvenile / immature worms: poorly effective against immature worms
[1]
  Cure rates: 60–90%
Sm.TRPMMCLZ; HEK293 cells, cytoplasmic Ca2+
  Agonist activity at Sm.TRPMMCLZ (concentration-response): did not activate
Sm.TRPMMCLZ; competition versus (S)-MCLZ (1 μM)
  Antagonism of (S)-MCLZ activation of Sm.TRPMMCLZ: failed to inhibit

Source: paper PMC10788528 (The Journal of Biological Chemistry, 2023)
